Like-named read-outs stand apart in the source and are kept apart here.
How the values were obtained:
[1] = tested on: PBCEC; format: cell-based, porcine; details: 1 µM apical, 48 h, referred to t = 0 h, n = 9 (negative control 88 ± 4%)
Description: (§1) In order to study the barrier integrity PBCEC were incubated with 1 µM OTA, OTα, CIT and DHCIT in the apical compartment (blood side) of Transwell® filter inserts for 48 h. The TEER values as well as the electrical capacitance (cCL) were monitored by cellular impedance spectroscopy (Figure 4A,B). As a negative control the permeability of […] was measured after 48 h. Sucrose is not transported by any cellular transport protein and represents a marker for an intact BBB.
For barrier integrity, TEER values were monitored using a cellZscope® cellular impedance spectrometer (nanoAnalytics, Münster, Germany). […]. The detailed protocols can be found in the Supplementary Materials. […]
6.1. Cellular impedance spectroscopy
To monitor the barrier integrity during all transfer studies, the transendothelial electrical resistance (TEER) was measured with a cellZscope® cellular impedance spectrometer (nanoAnalytics, Münster, Germany) using a module suitable for 24 Transwell® filter inserts. After the mycotoxins were added to the cell culture medium, TEER was analyzed until the end of the experiment (48 h). The waiting time after each run was set to 10 min, resulting in 60 scans per 48 h.
The results were normalized to the TEER values of the first impedance spectrum of each well. Data processing was performed using the cellZscope 1.3.4 software (nanoAnalytics, Münster, Germany).

[2] = tested on: PBCEC; test: Electrical capacitance cCL of the cell monolayer by impedance spectroscopy; format: cell-based, porcine; details: 1 µM apical, referred to t = 0 h, n = 9 (negative control 99 ± 2%)
Description: as §1
Besides the TEER values, the electrical capacitance cCL of the cell monolayer was also monitored for 48 h (Figure 4B). As cellular bilayer membranes behave like an electrical capacitor, they influence the cellular impedance. Changes in cCL are markers for the integrity of the cells. Weak cytotoxic effects lead to a reduction of cCL, whereas strong cytotoxic effects result in an exponential increase in cCL to more than 150% due to the usually observed detachment of the cells from the surface.
For barrier integrity, TEER values were monitored using a cellZscope® cellular impedance spectrometer (nanoAnalytics, Münster, Germany). […]. The detailed protocols can be found in the Supplementary Materials.
After 48 h the medium was […]
The Transwell® filters were briefly […]
equipped with a 24 12‐well Transwell® filter setup. Each well was previously filled with 1650 μL serum‐free medium. Transendothelial electrical resistances (TEER) were analyzed using the cellZscope® device. Only Transwell® filters with TEER values of more than 600 Ω∙cm² and electrical […]
76 μ L of the medium in the apical […]
concentration of the mycotoxins was 1 μM at the beginning of the mycotoxin incubation. The final solvent concentration was 0.1% ACN. […]
and 48 h after toxin application. […]

[3] = tested on: PBCEC monolayer; format: in vitro ADME, porcine; details: 200 nM in both compartments; for effect of probenecid on the enrichment in the apical compartment: 100 µM probenecid; for concentration in the apical compartment after 48 h / concentration in the basolateral compartment after 48 h: n = 3; for mycotoxin amounts extracted from the cells and filter membranes, of the initially applied amount: data not shown
Description: To analyse any active transport the mycotoxins were applied in the apical and basolateral compartments in equimolar concentrations of 200 nM. In a second set of experiments, 100 µM probenecid were added to both compartments 1 h before mycotoxin incubation in order to elucidate the effects of the OAT transport proteins. […] The mycotoxin concentrations were analysed as described above by HPLC-MS/MS.
For active transport studies, the cells were treated as described for transfer studies, with the only difference being that the compounds were applied on the apical and basolateral side in equimolar 200 nM concentrations (see Supplementary Materials). To investigate whether probenecid has an effect on the active transfer of the mycotoxins via OAT, 100 µM probenecid was applied to the apical and basolateral compartment 1 h before mycotoxin application and maintained until the end of the experiment.
Afterwards, the column was re-equilibrated for 4 min. An injection volume of 5 µL was used.
5. Active transport studies
To study the active transfer properties, the cells were treated in the same manner as for the normal transfer studies, but the mycotoxins were incubated on the apical and basolateral side in equimolar 200 nM concentrations as previously described. To investigate whether probenecid has an effect on the active transfer of the mycotoxins via OAT, 100 μM probenecid was applied to the apical and basolateral compartment 1 h before mycotoxin application and maintained until the end […]
after applying the mycotoxins using HPLC‐MS/MS. […]

[4] = tested on: PBCEC; details: for cytotoxic or barrier-weakening (adverse) effects / effect on cellular viability: up to 10 µM
[5] = tested on: PBCEC; details: 48 h
[6] = in vitro; details: pig
[7] = 100 µM probenecid from 1 h before
[8] = cellular viability (dehydrogenase activity) compared to the negative control, 1 µM, 48 h, CCK-8, n = 18
[9] = cellular viability (dehydrogenase activity) compared to the negative control, 10 µM, 48 h, CCK-8, n = 18

SMILES	relative TEER value after 48 h [1]	electrical capacitance cCL after 48 h [2]	effect of probenecid on the enrichment in the apical compartment [3]	concentration in the apical compartment after 48 h [3, 7]	concentration in the basolateral compartment after 48 h [3, 7]	concentration in the apical compartment after 48 h ([3]; without probenecid)	concentration in the basolateral compartment after 48 h ([3]; without probenecid)	mycotoxin amounts extracted from the cells and filter membranes, of the initially applied amount [3]	cytotoxic or barrier-weakening (adverse) effects [4]	effect on cellular viability ([4]; 48 h)	cellular morphology ([5]; 10 µM)	viability at 1 µM [6, 8]	viability at 10 µM [6, 9]	viability at 1 µM [6]	viability at 10 µM [6]	dehydrogenase activity compared to the negative control ([4]; 10 nM, 48 h, CCK-8, n = 18)	cellular morphology ([5]; 100 nM and lower concentrations)
C[C@@H]1Cc2c(Cl)cc(C(=O)O)c(O)c2C(=O)O1 [OTα, ochratoxin α]	92 ± 16%	98 ± 2%	weak	236 ± 16 nM	187 ± 1 nM	268 ± 10 nM	194 ± 5 nM	below 1%	no adverse effects	neither altered the cellular viability	unremarkable	119 ± 18%	100 ± 14%				
CC1=C2C(=CO[C@H](C)[C@H]2C)C(O)=C(C(=O)O)C1=O [CIT, Citrinin]	81 ± 10%	97 ± 4%	some effect of probenecid cannot be dismissed	205 ± 21 nM	180 ± 12 nM	266 ± 18 nM	182 ± 1 nM	below 1%	no adverse effects	neither altered the cellular viability	unremarkable			106 ± 13%	134 ± 13%		
Cc1c(O)c(C(=O)O)c(O)c2c1[C@H](C)[C@@H](C)OC2=O [DHCIT, dihydrocitrinone]	79 ± 9%	99 ± 4%		250 ± 15 nM	178 ± 15 nM	278 ± 7 nM	186 ± 6 nM	below 1%	no adverse effects	neither altered the cellular viability	unremarkable			96 ± 11%	87 ± 9%		
C[C@@H]1Cc2c(Cl)cc(C(=O)N[C@@H](Cc3ccccc3)C(=O)O)c(O)c2C(=O)O1 [OTA, Ochratoxin A]	62 ± 10%	96 ± 4%	minor almost negligible effect	292 ± 28 nM	224 ± 6 nM	275 ± 32 nM	206 ± 4 nM	below 1%			very similar morphological changes of the PBCEC as they were observed for 10 µM T-2 toxin	92 ± 23%	3 ± 4%			112 ± 12%	no morphological changes

From PMC8147254, “Efflux at the Blood-Brain Barrier Reduces the Cerebral Exposure to Ochratoxin A, Ochratoxin α, Citrinin and Dihydrocitrinone” (Toxins, 2021)
